Reference: patent US7452523B2 (priority 2004, dated 2008)
Where two headings read alike, the source gives them in different places.

Columns and labels:
[1] = test system: cough; conditions: nebulized before fibreoptic bronchoscopy; cited from earlier work
[2] = test system: cough; conditions: cited from earlier work
[3] = test system: mild to moderate asthma patients; conditions: for incidence of oropharyngeal numbing, noted at least once: 12 week study
[4] = test system: patients suffering from cough
[5] = test system: capsaicin-induced cough; conditions: lignocaine 20 mg, alone or with adrenaline; cited from earlier work
[6] = test system: cough responses in guinea pigs; conditions: cited from earlier work
[7] = test system: persistent cough after stellate ganglion block; conditions: 1 ml of 2% in 2 ml normal saline, nebulized; cited from earlier work
[8] = test system: cough; conditions: cited from earlier work; remark: listed apart in the source
[9] = test system: patient with persistent refractory tussive syncope; conditions: 1 ml of 1% nebulized every 4 hours for 10 days, with other anti-tussive drugs; cited from earlier work
[10] = test system: chronic refractory cough; conditions: 3 ml of 1% nebulized twice a day 6-10 weeks, with other drugs; cited from earlier work

CCN(CC)CC(=O)Nc1c(C)cccc1C [lidocaine, acetamide 2-(diethylamino)-N-(2,6-dimethylphenyl)]
time to cough suppression [1]: 10 to 15 min | anesthesia of oropharynx ([2]; 10 ml of 4%, about 30 minutes): substantial anesthesia of oropharynx | duration of cough suppression ([2]; after the first treatment, 10 ml of 4%): about 9 weeks | duration of cough suppression ([2]; after the second administration): 7.5 weeks | patients with one or more respiratory AEs ([3]; 10 mg (16/55)): 29% | incidence of oropharyngeal numbing, noted at least once ([3]; 10 mg (22/55)): 40% | patients with at least one adverse event ([3]; 10 mg twice daily, 12 weeks (39/55)): 71% | incidence of oropharyngeal numbing, noted at least once ([3]; 40 mg (16/51)): 31.45% | patients with one or more respiratory AEs ([3]; 40 mg (18/51)): 35% | patients with at least one adverse event ([3]; 40 mg twice daily, 12 weeks (33/51)): 65% | lung deposition of lidocaine ([3]; compared with previous delivery): increased two- to three-fold | loss of gag reflex ([3]; human, in vivo): No loss of gag reflex | reports of bronchospasm upon lidocaine delivery ([3]; human, in vivo): no reports of bronchospasm | tracheal aspiration of food or liquid ([3]; human, in vivo): No case | symptoms of cough patients sensitive to smoke, dust, airway pollution ([4]; 10 mg or 40 mg inhaled twice daily): substantial improvement of their symptoms | suppression of severe chronic cough ([4]; 16 mg lung dose delivered as 40 mg/1 ml saline, less than 2 minutes): very efficacious | cough in cystic fibrosis, bronchiectasis or other suppurative pulmonary disease ([4]; aerosolized): successful in suppressing the cough | tolerability and safety of aerosol ([4]; formulation pH between 5.5 and 7.0): well tolerated and safe | efficacy in seasonal non-severe cough ([4]; three mg delivered to the lung): efficacious | coughing [5]: significantly reduced coughing | total number of coughs induced by capsaicin ([6]; 10 to 30 mg/ml): reduced the total number of coughs | onset of the first cough ([6]; aerosol 0.1 to 10 mg/ml): delay onset of the first cough | time course of cough responses ([6]; aerosol 0.1 to 10 mg/ml): no significant effect | total number of coughs ([6]; aerosol 0.1 to 10 mg/ml): reduce the total number of coughs | treatment of persistent cough [7]: Treatment was achieved | cough ([8]; 10 to 20 mg every 4-6 hours, albuterol pretreatment): abolished cough | bronchoconstriction ([8]; 10 to 20 mg every 4-6 hours): not bronchoconstriction | bronchospasm on administration ([8]; in vivo): triggers bronchospasm | syncopal episodes [9]: able to resolve syncopal episodes | treatment of refractory cough [10]: effective
